Experimental data published in BigSolDB 2.1.

Molecule `O=Cc1ccc2ccccc2c1` has a solubility (mole fraction) (in ethanol, 283.15 K) of 0.0161, a solubility (mole fraction) (in ethanol, 288.15 K) of 0.0245 and a solubility (mole fraction) (in ethanol, 293.15 K) of 0.0377. It also gave a solubility (mole fraction) (in ethanol, 298.15 K) of 0.0653, a solubility (mole fraction) (in ethanol, 303.15 K) of 0.11 and a solubility (mole fraction) (in ethanol, 308.15 K) of 0.191. For the same molecule, the solubility (mole fraction) (in ethanol, 313.15 K) was 0.314, the solubility (mole fraction) (in isopropanol, 283.15 K) was 0.0115 and the solubility (mole fraction) (in isopropanol, 288.15 K) was 0.0201. It also gave a solubility (mole fraction) (in isopropanol, 293.15 K) of 0.0404, a solubility (mole fraction) (in isopropanol, 298.15 K) of 0.0557 and a solubility (mole fraction) (in isopropanol, 303.15 K) of 0.0908. It also gave a solubility (mole fraction) (in isopropanol, 308.15 K) of 0.144, a solubility (mole fraction) (in isopropanol, 313.15 K) of 0.237 and a solubility (mole fraction) (in methanol, 283.15 K) of 0.00592. It also gave a solubility (mole fraction) (in methanol, 288.15 K) of 0.00987, a solubility (mole fraction) (in methanol, 293.15 K) of 0.0163 and a solubility (mole fraction) (in methanol, 298.15 K) of 0.0274. The solubility (mole fraction) (in methanol, 303.15 K) was 0.0418, the solubility (mole fraction) (in methanol, 308.15 K) was 0.0696 and the solubility (mole fraction) (in methanol, 313.15 K) was 0.119. The solubility (mole fraction) (in n-butanol, 283.15 K) was 0.0195, the solubility (mole fraction) (in n-butanol, 288.15 K) was 0.0281 and the solubility (mole fraction) (in n-butanol, 293.15 K) was 0.0425. It also gave a solubility (mole fraction) (in n-butanol, 298.15 K) of 0.0561, a solubility (mole fraction) (in n-butanol, 303.15 K) of 0.0758 and a solubility (mole fraction) (in n-butanol, 308.15 K) of 0.117. It also gave a solubility (mole fraction) (in n-butanol, 313.15 K) of 0.164, a solubility (mole fraction) (in n-heptane, 283.15 K) of 0.00944 and a solubility (mole fraction) (in n-heptane, 288.15 K) of 0.0128. It also gave a solubility (mole fraction) (in n-heptane, 293.15 K) of 0.0164, a solubility (mole fraction) (in n-heptane, 298.15 K) of 0.0192 and a solubility (mole fraction) (in n-heptane, 303.15 K) of 0.0255. The solubility (mole fraction) (in n-heptane, 308.15 K) was 0.0345, the solubility (mole fraction) (in n-heptane, 313.15 K) was 0.0415 and the solubility (mole fraction) (in n-hexane, 283.15 K) was 0.00727. For the same molecule, the solubility (mole fraction) (in n-hexane, 288.15 K) was 0.00923, the solubility (mole fraction) (in n-hexane, 293.15 K) was 0.0128 and the solubility (mole fraction) (in n-hexane, 298.15 K) was 0.0159. For the same molecule, the solubility (mole fraction) (in n-hexane, 303.15 K) was 0.0189, the solubility (mole fraction) (in n-hexane, 308.15 K) was 0.026 and the solubility (mole fraction) (in n-hexane, 313.15 K) was 0.0314.
